Laboratory results taken from patent US11579147B2, “Use of VNN1 as a biomarker and a therapeutic target in sarcomas” (INSERM (Institut National de la Santé et de la Recherche …, priority 2017, dated 2023).
Entries after “also recorded” stand apart in the source; their conditions may differ.

Key:
[1] = test system: various metabolites analyzed by LC-MS; assay: LC-MS analysis of tumor metabolites; assay type: in vivo; details: administration to tumor-bearing mice
Text: (§1) Since pantetheinase hydrolyses pantetheine into pantothenate and cysteamine, we searched for more specific actions. We first focused on pantothenate which could be detected by LC-MS analysis. […] Accordingly, we found some significant variations in the levels of various metabolites involved in the regulation of the TCA cycle.

[2] = test system: GSH levels; assay: GSH levels in tumor tissue extracts; assay type: in vivo; details: administration to tumor-bearing mice, data not shown
Text: as §1

[3] = test system: collagen I or caveolin I genes; assay: qRT-PCR of differentiation genes in enriched tumor cells depleted of CD45+ cells; assay type: in vivo, mice; details: cysteamine-treated R tumor cells
Text: We then performed a similar analysis using RNA extracted from enriched R, cysteamine-treated R and VR tumor cells depleted of CD45+ hematopoietic cells. […] Therefore, Vnn1 expression is associated with a differentiated grade of tumors which is not recapitulated by CEA administration.

[4] = test system: myofibroblast cell lines (J2A, H1 or I1); assay: in vitro growth of Ras-transfected myofibroblast cell lines; assay type: cell-based, mouse; details: data not shown
Text: Given the slow rate of tumor development and the rare emergence of STS in Vnn1+/+ mice, we developed new transplantable STS models. The different tumors derived from three independent myofibroblast cell lines (J2A, H1 or I1) were subcutaneously grafted in Nude mice. […] Since pantetheinase activity releases pantothenate and cysteamine in vivo, we tested the effect of these compounds on in vitro and in vivo growth.

[5] = test system: Ras expressing tumors (R); assay: growth of tumors subcutaneously grafted in Nude mice; assay type: in vivo; details: administered to grafted mice, FIG. 4
Text: The different tumors derived from three independent myofibroblast cell lines (J2A, H1 or I1) were subcutaneously grafted in Nude mice. […] Since pantetheinase activity releases pantothenate and cysteamine in vivo, we tested the effect of these compounds on in vitro and in vivo growth.

[6] = test system: CoA levels; assay: coenzyme A levels in tumors; assay type: in vivo; details: administration to mice bearing R tumors
Text: as §1

CoA levels in tumors [6] | Structure (SMILES) | impact on the various metabolites analyzed by LC-MS [1] | GSH levels in tissue extracts [2] | expression of collagen I or caveolin I genes [3] | growth of cell lines in vitro [4] | tumor growth in grafted mice [5]
only moderately enhanced | NCCS [cysteamine, 2-aminoethanethiol] | could not detect a significant impact | reduction in GSH levels | not able to induce the expression | reduced the growth of all cell lines | inhibits tumor growth; also recorded: reduced the growth
 | CC(C)(CO)[C@@H](O)C(=O)NCCC(=O)O [pantothenate, 3-[(2R)-(2,4-Dihydroxy-3,3-dimethylbutanoyl)amino]propanoic acid] |  |  |  | no effect | 
